Test results from patent US11865095B2, “Combination drug substance of polyamine transport inhibitor and DFMO” (Aminex Therapeutics, Inc., priority 2020, dated 2024).
Read-outs that look alike come from different tables or passages of the source.

How the values were obtained:
[1] = bioavailability / Biopharmaceutics Classification System class
[2] = First-in-human clinical trial NCT03536728 Part 1: plasma pharmacokinetics and tolerability of oral AMXT 1501 dicaprate and DFMO
[3] = mouse, in vivo
[4] = clinical; conditions: human, in vivo, po
[5] = test system: cancer cells; test: in vitro EC50 against cancer cells; assay type: cell-based
[6] = in vivo; conditions: BALB/c, mouse, tumor, subcutaneous, 2.5 mg/kg
[7] = water solubility; assay type: physicochemical

Compound: CCCCCCCCCC(=O)O.CCCCCCCCCC(=O)O.CCCCCCCCCCCCCCCC(=O)NCCCC[C@@H](N)C(=O)NCCCNCCCCNCCCN [AMXT 1501 dicaprate]
- bioavailability [1]: low

Compound: CCCCCCCCCCCCCCCC(=O)NCCCC[C@@H](N)C(=O)NCCCNCCCCNCCCN [AMXT 1501, D-lys(palmitoyl)-spermine]
- duration of plasma levels ([2]; Cohort 5, over the 24-hour dosing time increment): sustained over the 24-hour dosing time increment
- adverse effects observed in patients ([2]; Part 1 patients, mainly gastrointestinal (nausea and diarrhea)): modest Grades 1 and 2 adverse effects
- Cmax ([2]; human, in vivo): < 1000 ng/mL
- mean AMXT 1501 exposure versus dose ([2]; single or repeat PO dosing, dose levels of 160 mg AMXT 1501 and higher): increased in a dose-dependent manner
- AMXT 1501 tumor AUC [3]: 152,000 hr*ng/mL
- Cmax [4]: 794 ng/mL
- EC50 ([5]; equivalent of 50 nM, read-out: plasma concentration equivalent to in vitro EC50): 0.028 µg/mL
- EC50 ([5]; read-out: in vitro EC50 against cancer cells): 50 nM
- Kp [6]: 14

Compound: NCCCC(N)(C(=O)O)C(F)F (centres unmarked) [DFMO, difluoromethylornithine]
- water solubility [7]: high
